Source: ChEMBL document CHEMBL1201862, “PubChem BioAssay data set” (2004)
Active and inactive are the calls of the source.

Tests used:
Leucine aminopeptidase = biological target: T1, Leucine aminopeptidase (Plasmodium falciparum 3D7, UniProt Q8IL11); experiment: P. falciparum M17LAP inhibitors, primary screen, biochemical, fluorogenic H-Leu-NHMec substrate, 1536-well (AID 1619); type: functional
T1 sequence (Q8IL11 whole entry): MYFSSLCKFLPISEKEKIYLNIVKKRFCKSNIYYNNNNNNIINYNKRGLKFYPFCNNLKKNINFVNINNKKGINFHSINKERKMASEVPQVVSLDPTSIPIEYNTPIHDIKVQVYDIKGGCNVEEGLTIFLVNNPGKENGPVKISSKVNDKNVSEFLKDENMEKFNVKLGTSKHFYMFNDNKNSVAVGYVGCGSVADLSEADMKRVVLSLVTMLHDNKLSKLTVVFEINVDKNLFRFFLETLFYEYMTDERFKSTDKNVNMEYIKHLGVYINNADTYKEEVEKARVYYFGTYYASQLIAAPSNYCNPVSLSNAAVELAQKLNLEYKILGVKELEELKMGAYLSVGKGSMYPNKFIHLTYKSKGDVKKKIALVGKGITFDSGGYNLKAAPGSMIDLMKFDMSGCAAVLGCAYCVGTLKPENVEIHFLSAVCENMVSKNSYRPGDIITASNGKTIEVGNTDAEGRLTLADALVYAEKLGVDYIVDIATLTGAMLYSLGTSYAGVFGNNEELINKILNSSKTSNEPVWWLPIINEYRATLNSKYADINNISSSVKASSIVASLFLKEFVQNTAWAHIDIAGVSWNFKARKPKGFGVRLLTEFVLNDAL

[1] = M. tuberculosis H37Rv growth inhibitors, H37Rv strain (AID 1626); type: functional
[2] = Luminescence-based cell-based high throughput dose response assay to identify activators of the DAF-12 from the parasite S. stercoralis (ssDAF-12).; type: functional
[3] = biological target: T2, Oxysterols receptor LXR-beta (Homo sapiens, UniProt P55055); experiment: LXR agonists, Gal4 luciferase reporter, dose response, counter-screen for ssDAF-12 agonist project, cell-based, luminescence, HEK293, S. stercoralis campaign (AID 720737); type: functional; conditions: read-out: IC50 (the source's name)
T2 sequence (P55055 whole entry): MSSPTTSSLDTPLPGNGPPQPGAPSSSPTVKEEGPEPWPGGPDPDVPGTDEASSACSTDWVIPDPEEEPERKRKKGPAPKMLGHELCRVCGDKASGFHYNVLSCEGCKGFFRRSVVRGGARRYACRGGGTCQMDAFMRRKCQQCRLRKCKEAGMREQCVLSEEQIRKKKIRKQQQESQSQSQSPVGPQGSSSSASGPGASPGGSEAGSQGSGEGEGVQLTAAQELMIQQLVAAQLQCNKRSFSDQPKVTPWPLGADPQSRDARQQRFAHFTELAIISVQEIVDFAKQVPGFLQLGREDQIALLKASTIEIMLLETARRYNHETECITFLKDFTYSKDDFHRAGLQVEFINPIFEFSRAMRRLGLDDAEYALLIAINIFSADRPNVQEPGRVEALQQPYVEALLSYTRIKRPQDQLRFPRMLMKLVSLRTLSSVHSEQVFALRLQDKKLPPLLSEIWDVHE

[4] = biological target: T3, Adenosylmethionine-8-amino-7-oxononanoate aminotransferase (Mycobacterium tuberculosis, UniProt P9WQ81); experiment: Mycobacterium tuberculosis BioA enzyme inhibitor Measured in Biochemical System Using Plate Reader - 2163-02_Inhibitor_Dose_CherryPick_Activity.; type: functional, Mycobacterium tuberculosis UT205
T3 sequence (P9WQ81 whole entry): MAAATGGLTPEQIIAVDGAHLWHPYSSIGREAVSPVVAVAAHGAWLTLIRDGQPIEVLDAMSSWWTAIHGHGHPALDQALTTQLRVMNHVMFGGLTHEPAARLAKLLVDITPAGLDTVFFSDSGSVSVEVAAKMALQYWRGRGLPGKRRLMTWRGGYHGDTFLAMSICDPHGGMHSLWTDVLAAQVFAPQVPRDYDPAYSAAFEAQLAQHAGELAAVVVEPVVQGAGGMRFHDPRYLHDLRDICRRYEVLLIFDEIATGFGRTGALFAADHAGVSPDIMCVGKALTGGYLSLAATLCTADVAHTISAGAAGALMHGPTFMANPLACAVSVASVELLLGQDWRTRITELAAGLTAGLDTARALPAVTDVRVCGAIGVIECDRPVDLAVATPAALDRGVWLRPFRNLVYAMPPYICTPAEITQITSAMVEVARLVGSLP

[5] = viability loss in HEK293 cells – cell-based, plate reader, cherry-picked samples, cytotoxicity control, dose response (AID 743446); type: functional
[6] = toxicity toward HepG2 liver cells – cell-based, plate reader, cherry-pick, antagonist series, cytotoxicity control, dose response (AID 743416); type: functional
[7] = A549 cell cytotoxicity, dose response, cytotoxicity control, plate reader, cherry-pick, antagonist series (AID 743412); type: functional, cell-based
[8] = blockade of melanocortin 4 receptor signaling – cell-based, plate reader, cherry pick, counter-screen for LGR2 antagonist project, dose response (AID 743444); type: functional;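 note: transfected HEK 293 cells stimulated with alpha-MSH peptide; potency of inhibitors of the alpha-MSH evoked signal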
[9] = blockers of bursicon-stimulated LGR2 cAMP reporter – cell-based, HEK293, CRE-luciferase reporter, cherry pick, set 2, dose response (AID 743343); type: functional;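 note: transfected cells were stimulated with diluted bursicon conditioned medium after compound addition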
[10] = test system: Streptococcus sp. 'group A'; experiment: Streptococcus pyogenes SK(-)GAS viability under kanamycin – luminescence, BacTiterGlo, confirmation, counter-screen for streptokinase expression inhibitor project, dose response (AID 1900); type: functional, organism-based
Streptococcus = experiment: GAS UMAA2166 growth inhibition – luminescence, BacTiterGlo, counter-screen for streptokinase expression inhibitor project, dose response (AID 1915); type: functional, organism-based;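 note: potency for reduction of bacterial viability or growth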
Streptokinase A = biological target: T4, Streptokinase A (Streptococcus pyogenes serotype M1, UniProt P10520); experiment: viability-normalized secreted streptokinase activity reduction – plasminogen activation absorbance, OD405, dose response (AID 1914); type: functional, Streptococcus pyogenes M1 GAS;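 note: secreted streptokinase activity via plasminogen activation per viability signal from cell pellet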
T4 sequence (P10520 whole entry): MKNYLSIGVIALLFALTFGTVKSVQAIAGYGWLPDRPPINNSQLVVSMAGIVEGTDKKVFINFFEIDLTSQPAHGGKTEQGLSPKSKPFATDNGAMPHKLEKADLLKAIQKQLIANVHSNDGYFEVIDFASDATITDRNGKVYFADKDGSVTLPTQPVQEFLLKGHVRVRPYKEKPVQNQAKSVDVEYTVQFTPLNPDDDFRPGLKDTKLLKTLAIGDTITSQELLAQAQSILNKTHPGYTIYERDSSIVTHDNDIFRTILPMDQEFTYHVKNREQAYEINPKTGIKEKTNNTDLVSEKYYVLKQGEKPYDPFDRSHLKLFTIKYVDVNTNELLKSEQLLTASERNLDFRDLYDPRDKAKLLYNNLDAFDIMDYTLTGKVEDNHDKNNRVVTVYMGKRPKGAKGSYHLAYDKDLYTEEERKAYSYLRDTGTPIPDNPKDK

[11] = OVCAR8 cell viability loss – plate reader, dry powder samples, PAX8 project, dose response (AID 743197); type: functional, cell-based; conditions: OVCAR-8
[12] = general cell-killing toxicity readout – plate reader, dry powder samples, cytotoxicity control for PAX8 inhibitor project, dose response (AID 743021); type: functional, cell-based
[13] = OVCAR-3 cell viability loss – plate reader, dry powder samples, PAX8 inhibitor project, dose response (AID 743044); type: functional, cell-based
Paired box protein Pax-8 = Paired box protein Pax-8 (Homo sapiens, UniProt Q06710); experiment: PAX8 transcriptional activity inhibition in RMG-I – RMG-I cells, luciferase, cherry-pick, dose response (AID 687027); type: functional, cell-based;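 note: luciferase reporter driven by Pax8 target thyroperoxidase promoter measured by SteadyGlo luminescence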
Sequence of Paired box protein Pax-8 (Q06710 whole entry): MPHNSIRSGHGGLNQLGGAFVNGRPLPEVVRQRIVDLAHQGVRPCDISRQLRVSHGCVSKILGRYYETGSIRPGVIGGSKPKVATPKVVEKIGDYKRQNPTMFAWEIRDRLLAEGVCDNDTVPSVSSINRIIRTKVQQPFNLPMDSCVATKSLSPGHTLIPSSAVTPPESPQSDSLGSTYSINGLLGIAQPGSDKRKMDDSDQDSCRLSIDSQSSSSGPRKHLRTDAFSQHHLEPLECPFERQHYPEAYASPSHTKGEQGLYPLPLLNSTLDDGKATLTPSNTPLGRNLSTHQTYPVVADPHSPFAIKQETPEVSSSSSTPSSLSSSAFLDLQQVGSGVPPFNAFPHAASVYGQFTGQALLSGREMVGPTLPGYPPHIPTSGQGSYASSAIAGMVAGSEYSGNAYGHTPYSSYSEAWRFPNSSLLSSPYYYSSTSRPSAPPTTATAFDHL

[14] = IGROV1 cell killing – plate reader, dry powder samples, PAX8 inhibitor project, dose response (AID 743043); type: functional, cell-based; conditions: IGROV-1

SMILES: CCOc1ccc(NC(=O)CSc2nc(C)cc(C)n2)cc1
- IC50 (Leucine aminopeptidase): 4.3 µM (active)

SMILES: CCOC(=O)c1ccc(NC(=O)CCNC(=O)c2ccc([N+](=O)[O-])cc2)cc1
- IC50 [1]: > 100 µM (active)

SMILES: CCOC(=O)/C(C#N)=C/c1cn(CCOc2ccccc2)c2ccccc12
- IC50 [2]: > 67.6 µM (inactive)
- EC50 [3]: > 67.6 µM (inactive)

SMILES: Fc1ccc(-c2ccc3c(c2)C2CC3CCN2)cc1 (stereo unspecified)
- AC50 [4]: 1.25 µM (active)

SMILES: Oc1nc2ccccc2n1C1CCN(C(CCc2ccccc2)c2nnnn2C2CCCCC2)CC1 (stereo unspecified)
- AC50 [5]: 12.8 µM (active)
- AC50 [6]: 30.6 µM (active)
- AC50 [7]: 15.8 µM (active)
- AC50 [8]: 14.1 µM (active)
- AC50 [9]: 20.3 µM (active)

SMILES: COC(=O)c1cccc(NC(=O)c2ccc(S(=O)(=O)N(C)c3ccccc3OC)cc2)c1
- AC50 [5]: 35.8 µM (active)
- AC50 [6]: 28.9 µM (active)
- AC50 [7]: 22.7 µM (active)
- AC50 [8]: 7.98 µM (active)
- AC50 [9]: 6.56 µM (active)

SMILES: Oc1c(Cl)cc(Cl)cc1/C=N\c1cc(C(F)(F)F)ccc1N1CCc2ccccc2C1
- IC50 [2]: > 67.5 µM (inactive)
- EC50 [10]: 4.75 µM (active)
- EC50 (Streptococcus): 11.8 µM (active)
- EC50 (Streptokinase A): 47.7 µM (active)
- EC50 [3]: > 67.5 µM (inactive)

SMILES: O=C(c1ccc2c(c1)OCO2)N1CC[C@@H]2[C@H](CO)Nc3ccc(-c4ccc(F)cc4)cc3[C@@H]21
- AC50 [4]: 1.4 µM (active)

SMILES: COc1ccc(NC(=O)Nc2ccc3c(c2)C(=O)N([C@H](C)CO)C[C@@H](C)[C@H](CN(C)Cc2ccc(C(F)(F)F)cc2)OCCCC[C@H](C)O3)cc1
- AC50 [11]: 33.1 µM (active)
- AC50 [12]: 70 µM (active)
- AC50 [13]: 20.5 µM (active)
- AC50 (Paired box protein Pax-8): 5.71 µM (active)
- AC50 [14]: 23 µM (active)

SMILES: OC[C@@H]1[C@H](c2ccc(-c3ccc(F)cc3)cc2)[C@@H]2CN(CCC(F)(F)F)CCCCN12
- AC50 [11]: 47.5 µM (active)
- AC50 [13]: 25.2 µM (active)
- AC50 (Paired box protein Pax-8): 34.9 µM (active)
- AC50 [14]: 30 µM (active)

SMILES: Cc1nn(-c2ccccc2)c(Cl)c1/C=N/O
- IC50 [1]: > 100 µM (active)
